Test results from US11458189B2, “Cytoprotective drugs” (BALMES TRANSPLANTATION, priority 2017, dated 2022).
Starred links: 1 amine or outer side, 2 acyl side, 3 side chain; linkers in the order of their positions; H or OH if unused. Positions of bridges follow the written chain, without caps; N, C: chain ends. Non-standard residues stand in square brackets, D forms with d. Residues, ends and D or L forms follow the SMILES beside them. *: point of attachment. hTyr(3S-OH,4S-OH,3'-OSO3H) = N[C@H](C(=O)O)[C@H](O)[C@@H](O)c1ccc(O)c(OS(=O)(=O)O)c1; Orn(4R-OH,5R-OH) = O=C([C@H](C[C@@H](O)[C@@H](O)N[*:3])N[*:1])[*:2]; Pro(3S-OH,4S-Me) = C[C@H]1CN[C@H](C(=O)O)[C@H]1O; X1 = CCCCCOc1ccc(-c2cc(-c3ccc(C(=O)*)cc3)no2)cc1; Gln(3R-OH) = NC(=O)C[C@@H](O)[C@H](N)C(=O)O; Hyp = O=C(O)[C@@H]1C[C@@H](O)CN1

System: Human Renal Proximal Tubular Epithelial Cells (HRPTEpiC)
Assay: Oxygen and glucose deprivation followed by replenishment, cell survival (calcein AM), HRPTEpiC
Format: cell-based
Protocol: Anidulafungin and micafungin were tested on Human Renal Glomerular Endothelial Cells (HRGEC, Innoprot P10665), on Human Renal Proximal Tubular Epithelial Cells (HRPTEpiC, Innoprot P10662), on Human Astrocytes (HA, caltag SC-1800), on Human Cardiac Microvascular Endothelial Cells (HCMEC, Caltag SC-6000), on Human Hepatic Sinusoidal Endothelial Cells (HHSEC, Caltag SC-5000), on Rat Primary Kidney Glomerular Endothelial cells (Cellbiologics, RN-6014G) and on Bovine Brain Microvascular Endothelial Cells (BBMEC, Caltag SC-B100).
In a first phase, these isolated, purified and cryopreserved cells are thawed and multiplied according to the supplier's recommendations in T75 or T175 flasks pre-coated with 2 μg of fibronectin/[…] (CORNING) for HRGEC, HCMEC, HHSEC and BBMEC, or 2 μg poly-L-lysin/cm^2 (Caltag SC-0403) for HRPTEpiC and HA, or 15 mL/flask 175 cm^2 gelatin-based solution (Cellbiologics) in the presence of endothelial cell supplemented growth medium ECM (P60104, INNOPROT, Caltag, SC-1001) for HRGEC, HCMEC, HHSEC, RPKGEC or BBMEC, or astrocyte cell supplemented growth medium AM (Caltag SC-1801) for HA or epithelial cell supplemented growth medium EpiCM (P60106, INNOPROT) for HRPTEpiC, at 37° C. under 5% CO2 and saturated humidity until their confluency. They are then harvested by trypsinization according to the method described by the supplier for exactly 5 minutes and then reseeded in new flasks a maximum of three times.
To carry out the oxygen and glucose deprivation test followed by their replenishment, the cells will be seeded in 96-well black plates with transparent flat bottom (GREINER). Once a sufficient number of cells has been obtained to allow seeding of 2000 to 15000 cells per well of 96-well plates depending on the cell type, the cells are seeded in these 96-well plates previously coated with an extracellular matrix as listed above for the flasks. The cells are cultured for 5 to 8 days according to the cell type, in the presence of the same growth medium as in the flask as described above except for HRGEC and HRPTEpiC for which DMEM (DUTSCHER) with 1 g/L of supplemented glucose is used, at 37° C. under 5% CO2 and saturated humidity to obtain confluency.
On the first day of oxygen and glucose deprivation, (5th, 6th, 7th or 8th day of culture), the culture conditions are drastically changed. The medium of all plates is removed and replaced by DMEM (DUTSCHER) medium without glucose and supplemented only with 1% penicillin-streptomycin (DUTSCHER). Anidulafungin or micafungin dissolved in dimethyl sulfoxide (DMSO) is then added to each well at the desired concentration, resulting in a maximum of 1% DMSO, and the plates are placed under hypoxia at <1% 02 and 5% CO2 at 37° C. for 24 hours of culture. Each compound was tested in a concentration range.
After 24 hours, the growth medium is changed and replaced by a richer medium, DMEM (DUTSCHER) at 1 g/L glucose and 2% FBS (INNOPROT) and 1% penicillin-streptomycin (DUTSCHER). These media will have been pre-equilibrated at 37° C. in advance. The cells are then returned to culture at 37° C. under 20% 02 and 5% CO2 for 22h.
After 22 hours of reoxygenation, the potential protective effect of anidulafungin or micafungin is measured by a cell viability test using calcein AM (CORNING), which is a dye substrate. The calcein AM can easily cross the cell membrane of the viable cells. The AM ester groups mask the part of the molecule that chelates calcium. Once inside the cells, the (non-fluorescent) calcein AM is hydrolyzed to (fluorescent) calcein by endogenous esterases. The resulting calcein molecule binds to calcium inside the cell and remains trapped inside the cell. These molecules emit strong green fluorescence when subjected to […] of a particular wavelength (495 nm). Since dead cells lack esterase activity, only living cells are labelled.
This cell viability test is performed in two steps. […]

CCCCCOc1ccc(-c2cc(-c3ccc(C(=O)N[C@H]4C[C@@H](O)[C@@H](O)NC(=O)[C@@H]5[C@@H](O)[C@@H](C)CN5C(=O)[C@H]([C@H](O)CC(N)=O)NC(=O)[C@H]([C@H](O)[C@@H](O)c5ccc(O)c(OS(=O)(=O)O)c5)NC(=O)[C@@H]5C[C@@H](O)CN5C(=O)[C@H]([C@@H](C)O)NC4=O)cc3)no2)cc1 [Micafungin, {5-[(1S,2S)-2-[(3S,6S,9S,11R,15S,18S,20R,21R,24S,25S,26S)-3-[(1R)-2-carbamoyl-1-hydroxyethyl]-11,20,21,25-tetrahydroxy-15-[(1R)-1-hydroxyethyl]-26-methyl-2,5,8,14,17,23-hexaoxo-18-[(4-{5-[4-(pentyloxy)phenyl]-1,2-oxazol-3-yl}benzene)amido]-1,4,7,13,16,22-hexaazatricyclo[22.3.0.0]heptacosan-6-yl]-1,2-dihydroxyethyl]-2-hydroxyphenyl}oxidanesulfonic acid] (X1-[Orn(4R-OH,5R-OH)]T[Hyp][hTyr(3S-OH,4S-OH,3'-OSO3H)][Gln(3R-OH)][Pro(3S-OH,4S-Me)]; lactam 1-C)
Globalfluo assay 1 ([Micafungin] log μM −4.39794): 17038910 arbitrary units
Globalfluo assay 2 ([Micafungin] log μM −4.39794): 16914110 arbitrary units
Globalfluo assay 3 ([Micafungin] log μM −4.39794): 17516930 arbitrary units
Mean globalfluo ([Micafungin] log μM −4.39794): 17156650 arbitrary units
Survival rate (%) ([Micafungin] log μM −4.39794): 58%
Globalfluo assay 1 ([Micafungin] log μM −4.69897): 18487560 arbitrary units
Globalfluo assay 2 ([Micafungin] log μM −4.69897): 18879740 arbitrary units
Globalfluo assay 3 ([Micafungin] log μM −4.69897): 18282240 arbitrary units
Mean globalfluo ([Micafungin] log μM −4.69897): 18549847 arbitrary units
Survival rate (%) ([Micafungin] log μM −4.69897): 63%
Globalfluo assay 1 ([Micafungin] log μM −4.79588): 17777390 arbitrary units
Globalfluo assay 2 ([Micafungin] log μM −4.79588): 17681470 arbitrary units
Globalfluo assay 3 ([Micafungin] log μM −4.79588): 18724080 arbitrary units
Mean globalfluo ([Micafungin] log μM −4.79588): 18060980 arbitrary units
Survival rate (%) ([Micafungin] log μM −4.79588): 61%
Globalfluo assay 1 ([Micafungin] log μM −4.853872): 17634840 arbitrary units
Globalfluo assay 2 ([Micafungin] log μM −4.853872): 17920170 arbitrary units
Globalfluo assay 3 ([Micafungin] log μM −4.853872): 19831830 arbitrary units
Mean globalfluo ([Micafungin] log μM −4.853872): 18462280 arbitrary units
Survival rate (%) ([Micafungin] log μM −4.853872): 63%
Globalfluo assay 1 ([Micafungin] log μM −4.920819): 18495680 arbitrary units
Globalfluo assay 2 ([Micafungin] log μM −4.920819): 17954570 arbitrary units
Globalfluo assay 3 ([Micafungin] log μM −4.920819): 19304800 arbitrary units
Mean globalfluo ([Micafungin] log μM −4.920819): 18585017 arbitrary units
Survival rate (%) ([Micafungin] log μM −4.920819): 64%
Globalfluo assay 1 ([Micafungin] log μM −5): 19091330 arbitrary units
Globalfluo assay 2 ([Micafungin] log μM −5): 21245570 arbitrary units
Globalfluo assay 3 ([Micafungin] log μM −5): 20574080 arbitrary units
Mean globalfluo ([Micafungin] log μM −5): 20303660 arbitrary units
Survival rate (%) ([Micafungin] log μM −5): 71%
Globalfluo assay 1 ([Micafungin] log μM −5.30103): 17265090 arbitrary units
Globalfluo assay 2 ([Micafungin] log μM −5.30103): 20693980 arbitrary units
Globalfluo assay 3 ([Micafungin] log μM −5.30103): 20348120 arbitrary units
Mean globalfluo ([Micafungin] log μM −5.30103): 19435730 arbitrary units
Survival rate (%) ([Micafungin] log μM −5.30103): 67%
Globalfluo assay 1 ([Micafungin] log μM −5.69897): 5296218 arbitrary units
Globalfluo assay 2 ([Micafungin] log μM −5.69897): 13559640 arbitrary units
Globalfluo assay 3 ([Micafungin] log μM −5.69897): 14370600 arbitrary units
Mean globalfluo ([Micafungin] log μM −5.69897): 11075486 arbitrary units
Survival rate (%) ([Micafungin] log μM −5.69897): 32%
Globalfluo assay 1 ([Micafungin] log μM −5.823909): 4696579 arbitrary units
Globalfluo assay 2 ([Micafungin] log μM −5.823909): 8382404 arbitrary units
Globalfluo assay 3 ([Micafungin] log μM −5.823909): 9632039 arbitrary units
Mean globalfluo ([Micafungin] log μM −5.823909): 7570341 arbitrary units
Survival rate (%) ([Micafungin] log μM −5.823909): 18%
Globalfluo assay 1 ([Micafungin] log μM −6): 5307945 arbitrary units
Globalfluo assay 2 ([Micafungin] log μM −6): 5614600 arbitrary units
Globalfluo assay 3 ([Micafungin] log μM −6): 8026091 arbitrary units
Mean globalfluo ([Micafungin] log μM −6): 6316212 arbitrary units
Survival rate (%) ([Micafungin] log μM −6): 13%
Globalfluo assay 1 ([Micafungin] log μM −6.09691): 6028392 arbitrary units
Globalfluo assay 2 ([Micafungin] log μM −6.09691): 5998920 arbitrary units
Globalfluo assay 3 ([Micafungin] log μM −6.09691): 5793032 arbitrary units
Mean globalfluo ([Micafungin] log μM −6.09691): 5940115 arbitrary units
Survival rate (%) ([Micafungin] log μM −6.09691): 11%
Globalfluo assay 1 ([Micafungin] log μM −6.221849): 4745212 arbitrary units
Globalfluo assay 2 ([Micafungin] log μM −6.221849): 4694631 arbitrary units
Globalfluo assay 3 ([Micafungin] log μM −6.221849): 5790310 arbitrary units
Mean globalfluo ([Micafungin] log μM −6.221849): 5076718 arbitrary units
Survival rate (%) ([Micafungin] log μM −6.221849): 8%
Globalfluo assay 1 ([Micafungin] log μM −6.39794): 4361975 arbitrary units
Globalfluo assay 2 ([Micafungin] log μM −6.39794): 4442347 arbitrary units
Globalfluo assay 3 ([Micafungin] log μM −6.39794): 5176795 arbitrary units
Mean globalfluo ([Micafungin] log μM −6.39794): 4660372 arbitrary units
Survival rate (%) ([Micafungin] log μM −6.39794): 6%
Globalfluo assay 1 ([Micafungin] log μM −6.69897): 4839699 arbitrary units
Globalfluo assay 2 ([Micafungin] log μM −6.69897): 4005588 arbitrary units
Globalfluo assay 3 ([Micafungin] log μM −6.69897): 4289833 arbitrary units
Mean globalfluo ([Micafungin] log μM −6.69897): 4378373 arbitrary units
Survival rate (%) ([Micafungin] log μM −6.69897): 5%
Globalfluo assay 1 ([Micafungin] log μM −7): 3602590 arbitrary units
Globalfluo assay 2 ([Micafungin] log μM −7): 3530551 arbitrary units
Globalfluo assay 3 ([Micafungin] log μM −7): 3665638 arbitrary units
Mean globalfluo ([Micafungin] log μM −7): 3599593 arbitrary units
Survival rate (%) ([Micafungin] log μM −7): 2%
Globalfluo assay 1 ([Micafungin] log μM −8): 3781795 arbitrary units
Globalfluo assay 2 ([Micafungin] log μM −8): 3409519 arbitrary units
Globalfluo assay 3 ([Micafungin] log μM −8): 3718559 arbitrary units
Mean globalfluo ([Micafungin] log μM −8): 3636624 arbitrary units
Survival rate (%) ([Micafungin] log μM −8): 2%
